This is an account of results in PubChem BioAssay (NCI).

Assay in all cases: growth of human tumour cells (NCI), 48 h
Assay [1] concerns HCT-15 colon.
Assay [2] deals with HOP-62 NSCLC.
In assay [3] the test system is HOP-92 NSCLC.
The subject of assay [4] is IGROV1 ovarian.
In assay [5] the test system is MCF7 breast.
The test system of assay [6] is NCI-H460 lung.
Assay [7] concerns SF-268 CNS.
Assay [8] has as its system SF-539 CNS.
Assay [9] deals with SK-MEL-2 melanoma.
In assay [10] the test system is TK-10 renal.

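Test compounds were applied to cells in 96-well plates for 48 hours at 5 doses. GI50 is the concentration that inhibits growth by half. Definition used: TGI = concentration required for complete inhibition of growth.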 Where only a bound is given, the exact number is not on record here.

Turning to `COc1cc2cc[n+](C)c(Cc3ccc(Oc4cc(Cc5c6cc(OC)c(OC)cc6cc[n+]5C)ccc4OC)cc3)c2cc1OC`, the TGI in assay [1], in assay [2], in assay [3], in [4], in assay [5] and in [6] was over 100 µM in each case. In addition, the TGI in assay [7], in assay [8], in assay [9] and in assay [10] was over 100 µM each time.
For `CS(=O)(=O)Nc1ccc(NCc2cnc3ccc4[nH]cccc4c23)cc1`, the TGI in [1] was over 100 µM; in assay [2], over 100 µM; in [3] it was over 100 µM; in assay [4], over 100 µM; in assay [5], 94.9 µM; in [6], over 100 µM. In addition, the TGI in assay [7] turned out to be 61.8 µM; in assay [8] it was 68.3 µM; in assay [9], 32 µM; in assay [10], 94.8 µM.
For `CC12OC(C(=O)C13CCC3)C1C(=O)c3c(O)ccc(O)c3C(=O)C12` (centres undefined), the GI50 was 0.952 µM in [1]; 3.01 µM in assay [2]; 3.3 µM in [4]; 1.49 µM in [5]; 7.46 µM in assay [6]; 7.96 µM in [7]. The GI50 in assay [8] is 2.99 µM; in assay [9] it was 14.1 µM; in [10], 0.587 µM. Also, the TGI in assay [1] turned out to be 3.4 µM; in assay [2] it was 15.6 µM; in assay [4], 11.4 µM; in [5] it was 6.2 µM; in [6], 29.3 µM; in [7] it was 26.3 µM. The TGI is 15.8 µM in [8], over 100 µM in assay [9] and 1.57 µM in assay [10].
Consider `O=C(NN1CCCCC1)c1cc2cc(CCl)ccc2oc1=O`, for which the TGI in assay [1] was 39.9 µM; in assay [2] it was 40.5 µM; in assay [3], 22.9 µM; in assay [4], 42.7 µM; in [5], over 100 µM; in assay [6] it was 31.1 µM. In addition, the TGI in [7] was 32.9 µM; in assay [8], over 100 µM; in [9], 28.9 µM; in assay [10], 35.5 µM.
As for `CC(C)C(=O)CC(c1ccc(Br)cc1)N1N=C(C(C)C)CC1c1ccc(Br)cc1` (centres undefined), the TGI in assay [1], in assay [2], in assay [3], in assay [6], in assay [7] and in assay [8] was over 100 µM each time. In addition, the TGI in [9] and in assay [10] was over 100 µM throughout.
For the molecule `CC(C)(C)COS(=O)OCC(C)(C)C`, the TGI in [1], in assay [2], in assay [3], in assay [4], in assay [5] and in assay [6] was over 100 µM in each case. The TGI in assay [7], in assay [8], in assay [9] and in assay [10] was over 100 µM in each case.
On to `Fc1c(F)c(F)c(CSc2nc3ccccc3[nH]2)c(F)c1F`, for which the TGI in assay [1], in [2], in assay [3], in assay [4], in assay [5] and in assay [6] was over 100 µM each time. Besides, the TGI in assay [7], in [8], in assay [9] and in [10] was over 100 µM each time.
`COc1cc(S(=O)(=O)Nc2ccc(-c3csc(/N=C\c4cccc(Oc5ccccc5)c4)n3)cc2)ccc1Cl`: the TGI in [1] was over 100 µM; in [2] it was over 100 µM; in assay [3], 58.6 µM; in [4], 64.2 µM; in assay [5], 21.1 µM; in assay [7] it was over 100 µM. The TGI in assay [8] and in assay [9] was over 100 µM in each case.
For `CC(CCCCNC(=O)OC(C)(C)C)NC(=O)NC(C)CCCCNC(=O)OC(C)(C)C` (centres undefined), the TGI in assay [1], in [2], in assay [3], in assay [4], in [5] and in assay [6] was over 100 µM throughout. The TGI in assay [7] and in assay [10] was over 100 µM in each case.
With `C=C(CN(C)C)C(=O)c1ccccc1Cl`, the TGI in assay [1] is 38.8 µM; in assay [2] it was over 100 µM; in [3], 31.1 µM; in assay [4], over 70.8 µM; in [6], over 100 µM; in [7] it was 42.7 µM. Moreover, the TGI is over 54.6 µM in [8], 36.5 µM in [9] and 39.2 µM in assay [10].
For the molecule `CCC1=C(CC2NCCc3cc(OC)c(OC)cc32)CC2c3ccccc3CCN2C1` (centres undefined), the TGI in [1] is over 100 µM; in [2], over 100 µM; in assay [3], 42.6 µM; in assay [4], over 100 µM; in assay [5], 42.7 µM; in assay [6] it was 25.1 µM. The TGI in assay [7] is over 100 µM; in [8] it was 21.4 µM; in assay [9], 29.2 µM; in assay [10], over 100 µM.
With `OC1CCSc2ccccc21` (centres undefined), the TGI in assay [1], in assay [2], in assay [4], in assay [6], in assay [7] and in assay [8] was over 100 µM in each case. For the same molecule, the TGI in assay [9] is over 100 µM.
For the molecule `Cc1c2ccccc2cc2cccc[n+]12`, the TGI was over 100 µM in assay [1]; over 100 µM in assay [2]; over 100 µM in assay [4]; over 100 µM in assay [5]; over 100 µM in assay [6]; 40.4 µM in assay [7]. Besides, the TGI in [8], in assay [9] and in assay [10] was over 100 µM throughout.
`CCCCSCCC(N)P(=O)(O)O` (centres undefined): the TGI in assay [1], in [2], in assay [3], in assay [4], in assay [5] and in assay [6] was over 100 µM each time. Moreover, the TGI in assay [9] and in [10] was over 100 µM each time.
`CN(CCCNC(=O)c1nn(-c2ccccc2)c2c1Cc1ccccc1-2)CCCNC(=O)c1nn(-c2ccccc2)c2c1Cc1ccccc1-2`: the TGI is 3.1 µM in [1]; 3.26 µM in [3]; 3.07 µM in assay [4]; 2.99 µM in assay [5]; 3.26 µM in assay [6]; 3.31 µM in [7]. Besides, the TGI in assay [8] was 2.97 µM; in assay [9] it was 2.69 µM; in assay [10] it was 3.22 µM.
With `Oc1ccc(Cl)cc1C1=Nn2c(COc3ccc4c(c3)CCCC4)nnc2SC1`, the TGI was determined as 36.7 µM in assay [1]; 27.5 µM in [2]; 18.1 µM in assay [3]; 26.3 µM in [4]; 32.5 µM in assay [5]; 30.9 µM in assay [6]. Further, the TGI turned out to be 35 µM in assay [7], 33.4 µM in [8], 31.1 µM in assay [9] and 20.1 µM in [10].
`Nc1csc(-c2scc3c2OCCO3)c1N`: the TGI was 35.1 µM in assay [1]; 42.6 µM in assay [2]; 71.8 µM in assay [3]; 54.8 µM in [4]; 33.4 µM in [5]; 73.7 µM in [6]. Moreover, the TGI in assay [7] worked out at 47.5 µM; in assay [8], 47.4 µM; in assay [9], 40 µM; in assay [10], 87.3 µM.
In the case of `CN(CCN1C(=O)c2cccc3cccc(c23)C1=O)CCN1C(=O)c2cccc3cccc(c23)C1=O`, the TGI is over 100 µM in assay [1]; 26.4 µM in assay [2]; over 100 µM in [4]; over 100 µM in assay [5]; over 100 µM in [6]; over 100 µM in [7]. Further, the values for the TGI in assay [8], in [9] and in [10] were over 100 µM, over 100 µM and 27.7 µM, respectively.
With `Clc1cccc(/C=c2\nc(-c3ccccc3)n3c2nc2ccccc23)c1`, the TGI in assay [1] is over 100 µM; in assay [2] it was over 100 µM; in assay [3], 48.4 µM; in [4], over 100 µM; in [5] it was over 100 µM; in [6], over 100 µM. The TGI in assay [7], in [8], in [9] and in assay [10] was over 100 µM throughout.
In the case of `O=C1/C(=C/c2ccc([N+](=O)[O-])cc2)Sc2scc(-c3cccc([N+](=O)[O-])c3)[n+]21`, the TGI in [1] was 5.75 µM; in assay [2], 33.9 µM; in assay [3], 13.8 µM; in [4], 10.7 µM; in assay [5] it was over 38.3 µM; in [6], 26.1 µM. Moreover, the TGI in [7] is 7.75 µM; in [8] it was 6.44 µM; in [9], 30.8 µM; in assay [10], 17.8 µM.
With `CS(=O)(=O)Nc1cccc(-c2ccc3ncnc(Nc4cncc(Cl)c4)c3c2)c1`, the GI50 in assay [2] was 2.7 µM; in assay [3], 1.83 µM; in assay [4] it was 0.533 µM; in [6], 3.18 µM; in [7], 2.26 µM; in [8], 2.06 µM. Besides, the GI50 in assay [9] was 2.64 µM; in assay [10], 0.748 µM. For the same molecule, the TGI is 17.8 µM in [2]; 26.8 µM in assay [3]; 4.06 µM in assay [4]; over 100 µM in assay [6]; over 100 µM in assay [7]; 5.82 µM in assay [8]. Besides, the TGI was found to be 7.35 µM in assay [9] and 5.44 µM in assay [10].
Regarding `COc1ccc2c3c([nH]c2c1)[C@H](C=C(C)C)N1C(=O)[C@@H]2CCCN2C(=O)[C@@H]1C3`, the TGI in [1], in assay [2], in assay [3], in assay [4], in assay [5] and in assay [6] was over 100 µM throughout. Further, the TGI in assay [7] is over 100 µM; in assay [8] it was 83 µM; in [9], over 100 µM; in assay [10] it was over 100 µM.
Take `CCOC(=O)c1cccc(N=Nc2ncc(/C=C/C(=O)OC)[nH]2)c1`: the TGI is over 100 µM in [1]; 51.3 µM in assay [2]; over 100 µM in assay [3]; 83.8 µM in [4]; 86.2 µM in assay [5]; 34.5 µM in assay [6]. The TGI in assay [7], in assay [8], in [9] and in assay [10] was over 100 µM each time.
Regarding `Cc1ccc(S(=O)(=O)Nc2cc(=O)[nH]c3c2CCC3)cc1`, the TGI in assay [1], in assay [2], in assay [3], in [4], in assay [5] and in assay [6] was over 100 µM each time. For the same molecule, the TGI in assay [7], in [8], in [9] and in assay [10] was over 100 µM throughout.
`O=C1CNc2cc(N3CCCCC3)ccc2N1`: the TGI in assay [1] is over 100 µM; in assay [2] it was over 100 µM; in assay [3], over 100 µM; in assay [4], 29.7 µM; in assay [5] it was over 100 µM; in assay [6] it was over 100 µM. Besides, the TGI in assay [8], in assay [9] and in assay [10] was over 100 µM throughout.
Consider `NC(N)=N/N=C/c1c(-c2cccs2)nc2n1CCS2`, for which the GI50 in [1] is 20.6 µM; in assay [4], 34.9 µM; in assay [5] it was 17.6 µM; in assay [6], 18.7 µM; in [7] it was 25.5 µM; in assay [8], 19.2 µM. In addition, the GI50 is 43.3 µM in assay [9] and 18.3 µM in [10]. Also, the TGI in [1] was 60.1 µM; in assay [4], over 100 µM; in assay [5], 35.1 µM; in assay [6], 40.6 µM; in [7], 53.3 µM; in assay [8], 33.3 µM. The TGI in [9] was over 100 µM; in [10], 46.5 µM.
